From publication PMC5926292 (Japanese Journal of Cancer Research : Gann, 2000) come the findings set out here.

Molecules are shown by their SMILES. ≈ marks a conversion by molar mass, not a printed value.

Among the test systems are CFU-Mix; CFU-GM; BFU-E.
What all share (assay): Colony assay of hematopoietic progenitors
Assay type in all cases: cell-based
Holding throughout (conditions): Homo sapiens, read-out: IC50 for colony formation

Turning to `C/C=C1\NC(=O)[C@H]2CSSCC/C=C/[C@H](CC(=O)N[C@H](C(C)C)C(=O)N2)OC(=O)[C@H](C(C)C)NC1=O` [FK228], the IC50 stood at 7.8 ng/mL (≈ 14.4 nM) with CFU-Mix, 4.4 ng/mL (≈ 8.14 nM) in the test on CFU-GM and 3.1 ng/mL (≈ 5.73 nM) with BFU-E.

For orientation: IC50 means the point on the concentration scale where inhibition reaches its midpoint.
